Data reported in patent US9775844B2, “Heterocyclic compounds and uses thereof” (Infinity Pharmaceuticals, Inc., priority 2014, dated 2017).
pIC50: −log10 of the molar value.

Assays:
[1] = molecular target: PI3K-γ in RAW264.7 macrophages (Mus musculus (Mouse), UniProt Q9JHG7); experiment: Raw264.7 p110 γ assay (PI3K-γ selective cellular assay, C5a-stimulated phospho-AKT); assay type: cell-based; settings: phospho-AKT; read-out: Raw264.7 p110 γ assay IC50
Text: Briefly, serum-starved RAW264.7 cells are stimulated with a known GPCR agonist C5a. […] Cells can be treated with test compounds prior to, simultaneously with, or subsequent to the stimulation by C5a. RAW 264.7 cells respond to the complement component fragment C5a through activation of the C5a receptor, and the C5a receptor activates macrophages and induces cell migration.

PI3K δ = PI3K δ (Homo sapiens (Human), UniProt O00329); experiment: PI3-Kinase Promega ADP-Glo Max assay; assay type: biochemical
PI3K δ, sequence (O00329 whole entry): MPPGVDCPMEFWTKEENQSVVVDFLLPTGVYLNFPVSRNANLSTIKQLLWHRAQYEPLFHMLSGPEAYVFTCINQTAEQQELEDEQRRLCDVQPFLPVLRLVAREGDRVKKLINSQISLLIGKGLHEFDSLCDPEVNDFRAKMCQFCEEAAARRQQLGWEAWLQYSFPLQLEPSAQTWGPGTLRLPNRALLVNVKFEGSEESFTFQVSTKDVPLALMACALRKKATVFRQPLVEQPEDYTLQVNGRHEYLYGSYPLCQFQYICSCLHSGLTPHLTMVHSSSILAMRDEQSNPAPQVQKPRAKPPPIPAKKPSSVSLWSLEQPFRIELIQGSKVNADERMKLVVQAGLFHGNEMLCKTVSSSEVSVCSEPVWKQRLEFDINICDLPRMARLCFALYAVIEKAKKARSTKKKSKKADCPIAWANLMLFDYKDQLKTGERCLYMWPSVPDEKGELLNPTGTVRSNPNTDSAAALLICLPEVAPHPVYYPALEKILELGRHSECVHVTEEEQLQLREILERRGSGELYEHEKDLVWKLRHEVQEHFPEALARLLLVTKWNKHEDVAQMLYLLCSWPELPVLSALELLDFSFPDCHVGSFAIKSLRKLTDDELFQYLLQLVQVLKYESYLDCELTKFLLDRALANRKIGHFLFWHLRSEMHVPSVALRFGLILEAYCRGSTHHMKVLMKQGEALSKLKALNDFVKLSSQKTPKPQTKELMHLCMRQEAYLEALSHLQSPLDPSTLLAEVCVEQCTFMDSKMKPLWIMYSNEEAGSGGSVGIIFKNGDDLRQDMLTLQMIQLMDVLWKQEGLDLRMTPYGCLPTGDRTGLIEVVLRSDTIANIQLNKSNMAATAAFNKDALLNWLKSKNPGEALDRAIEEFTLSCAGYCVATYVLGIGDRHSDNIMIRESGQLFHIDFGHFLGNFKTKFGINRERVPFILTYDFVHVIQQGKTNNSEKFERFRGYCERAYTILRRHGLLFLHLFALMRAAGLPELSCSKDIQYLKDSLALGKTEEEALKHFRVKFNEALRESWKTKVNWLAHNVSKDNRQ
PI3K δ, sequence (P27986 whole entry partner): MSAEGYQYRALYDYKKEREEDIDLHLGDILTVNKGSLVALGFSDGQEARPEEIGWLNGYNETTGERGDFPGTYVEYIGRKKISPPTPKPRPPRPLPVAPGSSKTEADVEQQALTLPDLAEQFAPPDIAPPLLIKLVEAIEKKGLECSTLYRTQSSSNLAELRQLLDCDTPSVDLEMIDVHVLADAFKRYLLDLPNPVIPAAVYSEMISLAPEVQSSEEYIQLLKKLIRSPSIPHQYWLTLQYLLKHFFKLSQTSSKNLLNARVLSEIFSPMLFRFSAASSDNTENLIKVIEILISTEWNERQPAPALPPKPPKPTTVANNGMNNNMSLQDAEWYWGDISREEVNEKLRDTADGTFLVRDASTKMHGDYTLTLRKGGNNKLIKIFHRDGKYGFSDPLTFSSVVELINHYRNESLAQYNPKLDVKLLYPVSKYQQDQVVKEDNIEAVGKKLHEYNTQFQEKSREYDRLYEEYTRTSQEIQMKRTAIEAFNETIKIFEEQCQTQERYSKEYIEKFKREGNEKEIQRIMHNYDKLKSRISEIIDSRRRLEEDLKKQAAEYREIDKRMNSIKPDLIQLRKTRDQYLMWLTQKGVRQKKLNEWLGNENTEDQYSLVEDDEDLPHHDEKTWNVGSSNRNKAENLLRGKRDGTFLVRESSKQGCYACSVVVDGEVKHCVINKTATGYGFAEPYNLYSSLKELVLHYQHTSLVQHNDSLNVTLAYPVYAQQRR

PI3K γ = PI3K γ (Homo sapiens (Human), UniProt P48736); experiment: PI3-Kinase Promega ADP-Glo Max assay; assay type: biochemical
PI3K γ, sequence (P48736 whole entry): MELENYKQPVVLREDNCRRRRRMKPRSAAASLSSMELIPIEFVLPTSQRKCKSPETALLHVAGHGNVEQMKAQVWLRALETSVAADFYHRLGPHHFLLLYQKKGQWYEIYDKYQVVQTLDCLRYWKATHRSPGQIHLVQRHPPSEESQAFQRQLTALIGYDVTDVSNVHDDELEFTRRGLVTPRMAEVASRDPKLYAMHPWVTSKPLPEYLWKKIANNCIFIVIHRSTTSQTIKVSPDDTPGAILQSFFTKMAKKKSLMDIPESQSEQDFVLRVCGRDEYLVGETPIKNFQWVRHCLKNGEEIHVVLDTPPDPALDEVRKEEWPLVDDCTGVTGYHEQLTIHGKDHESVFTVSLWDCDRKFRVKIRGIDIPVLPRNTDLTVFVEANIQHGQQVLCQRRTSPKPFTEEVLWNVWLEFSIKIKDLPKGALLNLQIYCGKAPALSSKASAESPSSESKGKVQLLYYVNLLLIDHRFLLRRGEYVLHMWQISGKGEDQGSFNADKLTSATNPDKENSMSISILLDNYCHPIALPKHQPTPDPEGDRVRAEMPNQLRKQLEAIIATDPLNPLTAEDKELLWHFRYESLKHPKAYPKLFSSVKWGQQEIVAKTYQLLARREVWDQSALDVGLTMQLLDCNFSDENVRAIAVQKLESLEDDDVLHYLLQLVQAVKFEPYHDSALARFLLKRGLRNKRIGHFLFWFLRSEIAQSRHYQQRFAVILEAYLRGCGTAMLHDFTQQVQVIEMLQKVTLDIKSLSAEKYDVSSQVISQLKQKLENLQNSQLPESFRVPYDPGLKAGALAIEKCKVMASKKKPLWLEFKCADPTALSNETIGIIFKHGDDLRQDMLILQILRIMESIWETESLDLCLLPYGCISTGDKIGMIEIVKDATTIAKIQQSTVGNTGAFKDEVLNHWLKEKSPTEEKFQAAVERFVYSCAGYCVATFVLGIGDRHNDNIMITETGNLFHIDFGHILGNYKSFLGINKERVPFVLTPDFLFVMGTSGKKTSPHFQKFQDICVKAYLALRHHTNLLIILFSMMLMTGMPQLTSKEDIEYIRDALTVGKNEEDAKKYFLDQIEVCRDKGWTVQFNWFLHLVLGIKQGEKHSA
Experimental: (§1) Promega ADP-Glo Max assay kit (Cat. No. V7002) was utilized to determine IC50 values for α, β, δ and γ isoforms of human Class I PI3 kinases (Millipore). […] Reactions were incubated at room temperature for 2 hours followed by addition of 25 uL of stop solution. After a 40-minute incubation at room temperature, 50 uL of Promega detection mix was added followed by incubation for 1 hour at room temperature. Plates were then read on Envision plate reader in lunimescence mode. Data was converted to % inhibition using the following equation below:
(§2) [formula] where S is the sample luminescence, Pos is a positive control without added PI3K, Neg is the negative control without added compound. Data was then plotted as % inhibition vs compound concentration.

PI3K α = PI3K α (Homo sapiens (Human), UniProt P42336); experiment: PI3-Kinase Promega ADP-Glo Max assay; assay type: biochemical
Experimental: as §1, §2

PI3K β = PI3K β (Homo sapiens (Human), UniProt P42338); experiment: PI3-Kinase Promega ADP-Glo Max assay; assay type: biochemical
PI3K β, sequence (P42338 whole entry): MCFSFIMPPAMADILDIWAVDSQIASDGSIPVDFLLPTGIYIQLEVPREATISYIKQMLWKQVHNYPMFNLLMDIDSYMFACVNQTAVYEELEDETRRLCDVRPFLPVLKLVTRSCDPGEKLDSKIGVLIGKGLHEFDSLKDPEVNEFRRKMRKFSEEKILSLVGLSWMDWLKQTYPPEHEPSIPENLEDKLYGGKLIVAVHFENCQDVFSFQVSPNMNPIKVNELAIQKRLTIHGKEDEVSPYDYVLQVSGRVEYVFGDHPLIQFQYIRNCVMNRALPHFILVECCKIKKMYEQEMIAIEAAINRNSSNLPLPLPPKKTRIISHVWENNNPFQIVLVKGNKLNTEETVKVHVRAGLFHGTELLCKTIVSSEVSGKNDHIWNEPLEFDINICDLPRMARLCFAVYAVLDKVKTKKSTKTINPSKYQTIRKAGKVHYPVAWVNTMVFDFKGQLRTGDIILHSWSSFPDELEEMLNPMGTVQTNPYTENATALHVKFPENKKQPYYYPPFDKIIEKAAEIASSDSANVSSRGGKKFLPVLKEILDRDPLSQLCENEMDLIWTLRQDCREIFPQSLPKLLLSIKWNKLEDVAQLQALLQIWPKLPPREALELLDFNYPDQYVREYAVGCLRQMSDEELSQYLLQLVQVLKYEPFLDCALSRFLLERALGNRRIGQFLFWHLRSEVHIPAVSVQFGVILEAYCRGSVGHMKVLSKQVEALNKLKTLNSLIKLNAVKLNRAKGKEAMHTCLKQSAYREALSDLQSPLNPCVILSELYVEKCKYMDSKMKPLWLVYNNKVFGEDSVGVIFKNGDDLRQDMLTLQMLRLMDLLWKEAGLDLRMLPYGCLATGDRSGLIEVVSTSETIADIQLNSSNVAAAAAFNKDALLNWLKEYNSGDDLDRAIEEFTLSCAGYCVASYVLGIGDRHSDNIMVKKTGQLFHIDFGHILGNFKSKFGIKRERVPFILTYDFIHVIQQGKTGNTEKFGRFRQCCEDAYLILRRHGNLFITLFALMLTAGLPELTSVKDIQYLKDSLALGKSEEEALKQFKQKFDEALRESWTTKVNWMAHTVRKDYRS
PI3K β, sequence (P27986 whole entry partner): as the sequence (P27986 whole entry partner) above

PI3K-γ in RAW264.7 macrophages, sequence (Q9JHG7 whole entry): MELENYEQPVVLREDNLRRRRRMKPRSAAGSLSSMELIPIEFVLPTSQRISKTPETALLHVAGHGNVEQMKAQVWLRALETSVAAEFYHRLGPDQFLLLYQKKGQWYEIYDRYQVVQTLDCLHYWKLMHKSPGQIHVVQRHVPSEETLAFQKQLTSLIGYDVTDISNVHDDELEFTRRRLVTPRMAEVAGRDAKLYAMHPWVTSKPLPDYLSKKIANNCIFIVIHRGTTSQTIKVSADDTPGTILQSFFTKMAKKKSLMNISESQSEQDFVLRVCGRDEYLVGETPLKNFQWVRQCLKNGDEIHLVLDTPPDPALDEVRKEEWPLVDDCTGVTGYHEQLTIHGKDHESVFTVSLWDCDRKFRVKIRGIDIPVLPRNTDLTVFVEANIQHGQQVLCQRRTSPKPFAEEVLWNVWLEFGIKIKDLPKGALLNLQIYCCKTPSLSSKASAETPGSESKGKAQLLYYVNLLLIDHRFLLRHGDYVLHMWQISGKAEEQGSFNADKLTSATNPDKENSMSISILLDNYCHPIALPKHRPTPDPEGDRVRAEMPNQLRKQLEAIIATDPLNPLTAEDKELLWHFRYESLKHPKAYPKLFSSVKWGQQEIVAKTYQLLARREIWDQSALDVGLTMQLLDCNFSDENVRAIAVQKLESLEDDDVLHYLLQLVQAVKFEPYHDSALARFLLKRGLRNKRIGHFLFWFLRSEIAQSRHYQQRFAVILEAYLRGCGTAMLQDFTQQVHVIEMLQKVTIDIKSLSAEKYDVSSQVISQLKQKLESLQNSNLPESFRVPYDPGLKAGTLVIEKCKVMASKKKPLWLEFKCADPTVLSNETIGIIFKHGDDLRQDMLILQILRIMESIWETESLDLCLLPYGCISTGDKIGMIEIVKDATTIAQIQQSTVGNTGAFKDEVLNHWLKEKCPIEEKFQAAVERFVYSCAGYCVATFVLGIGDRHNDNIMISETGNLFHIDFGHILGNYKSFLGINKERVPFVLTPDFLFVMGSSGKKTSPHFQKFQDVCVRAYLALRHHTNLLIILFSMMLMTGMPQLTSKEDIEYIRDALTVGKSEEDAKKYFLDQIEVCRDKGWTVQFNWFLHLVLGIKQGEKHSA

Structure (SMILES)	pIC50 [1]	pIC50 (PI3K δ)	pIC50 (PI3K γ)	PI3K δ/PI3K γ IC50 (selectivity) (PI3K γ)	pIC50 (PI3K α)	pIC50 (PI3K β)
C[C@H](NC(=O)c1c(N)nn2cccnc12)c1cc2cccc(C#Cc3ccc(=O)[nH]c3)c2c(=O)n1-c1ccccc1 [Compound 33]	7.30 to 9.00					
C[C@H](NC(=O)c1cncc2cccnc12)c1cc2cccc(C#Cc3cnn(C)c3)c2c(=O)n1-c1ccccc1 [Compound 42]	7.30 to 9.00					
C[C@H](NC(=O)c1c(N)nn2cccnc12)c1cc2cccc(C#Cc3cnn(C)c3)c2c(=O)[nH]1 [Compound 44]	7.00 to 7.30					
C#Cc1cccc2nc([C@H](C)NC(=O)c3nccnc3N)n(-c3ccccc3)c(=O)c12 [Compound 47]		6.30 to 9.00	7.00 to 9.00	V (V = 0.1 to 1)	5.30 to 6.00	6.30 to 9.00
C[C@H](NC(=O)c1c(N)nn2cccnc12)c1cc2cccc(C#CC3CCN(C)CC3)c2c(=O)n1-c1ccccc1 [Compound 85]		5.00 to 5.30	6.00 to 6.30	X (X = 10 to <50)	5.00 to 5.30	5.00 to 5.30
Cc1nnc(C#Cc2cccc3cc([C@H](C)NC(=O)c4c(N)nn5cccnc45)n(-c4ccccc4)c(=O)c23)s1 [Compound 86]		5.30 to 6.00	6.30 to 7.00	X (X = 10 to <50)	5.00 to 5.30	5.30 to 6.00
C[C@H](NC(=O)c1c(N)nn2cccnc12)c1cc2cccc(/C=C/c3ccccc3)c2c(=O)n1-c1ccccc1 [Compound 87]		5.00 to 5.30	< 5.30	V (V = 0.1 to 1)	5.00 to 5.30	5.00 to 5.30
C[C@H](NC(=O)c1c(N)nn2cccnc12)c1cc2cccc(C#Cc3cnn(C)c3)c2c(=O)n1-c1cccc(F)c1 [Compound 93]		5.00 to 5.30	7.00 to 9.00	Y (Y = 50 to <850)	5.00 to 5.30	5.00 to 5.30
C[C@H](NC(=O)c1c(N)nn2cccnc12)c1cc2cccc(C#Cc3cnn(C)c3)c2c(=O)n1C [Compound 94]		5.00 to 5.30	6.30 to 7.00	X (X = 10 to <50)	5.30 to 6.00	6.00 to 6.30
Cc1cccc(-n2c([C@H](C)NC(=O)c3c(N)nn4cccnc34)cc3cccc(C#Cc4cnn(C)c4)c3c2=O)c1 [Compound 95]		5.00 to 5.30	6.30 to 7.00	X (X = 10 to <50)	5.00 to 5.30	5.00 to 5.30
C[C@H](NC(=O)c1c(N)nn2cccnc12)c1cc2cccc(C#Cc3cnn(C)c3)c2c(=O)n1-c1ccc(F)cc1 [Compound 96]		5.00 to 5.30	7.00 to 9.00	Y (Y = 50 to <850)	5.30 to 6.00	5.00 to 5.30
C[C@H](NC(=O)c1c(N)nn2cccnc12)c1cc2cccc(C#Cc3cnn(C)c3)c2c(=O)n1-c1ccc(F)c(F)c1 [Compound 97]		5.00 to 5.30	6.30 to 7.00	X (X = 10 to <50)	5.00 to 5.30	5.00 to 5.30
Cc1ccc(-n2c([C@H](C)NC(=O)c3c(N)nn4cccnc34)cc3cccc(C#Cc4cnn(C)c4)c3c2=O)cc1 [Compound 98]		5.00 to 5.30	6.30 to 7.00	X (X = 10 to <50)	5.00 to 5.30	5.00 to 5.30
C[C@H](NC(=O)c1c(N)nn2cccnc12)c1cc2cccc(C#Cc3cnn(C)c3)c2c(=O)n1C1CCCCC1 [Compound 99]		5.00 to 5.30	5.30 to 6.00	X (X = 10 to <50)	5.00 to 5.30	5.00 to 5.30
CNS(=O)(=O)CCn1c([C@H](C)NC(=O)c2c(N)nn3cccnc23)cc2cccc(C#Cc3cnn(C)c3)c2c1=O [Compound 100]		5.00 to 5.30	7.00 to 9.00	Y (Y = 50 to <850)	5.30 to 6.00	5.30 to 6.00
Cc1ccccc1-n1c([C@H](C)NC(=O)c2c(N)nn3cccnc23)cc2cccc(C#Cc3cnn(C)c3)c2c1=O [Compound 101]		5.00 to 5.30	7.00 to 9.00	Y (Y = 50 to <850)	5.00 to 5.30	5.00 to 5.30
